Data on 3 compounds can be found in paper PMC11249646, “Small-Molecule Disruptors of the Interaction between Calcium- and Integrin-Binding Protein 1 and Integrin αIIbβ3 as Novel Antiplatelet Agents” (ACS Pharmacology & Translational Science, 2024).

pIC50: −log10 of the molar value. In brackets after ≈: the same amount, converted by molar mass. Read-outs that look alike come from different tables or passages of the source. Where only a bound is given, the exact number is not on record here.

In data set [1] the target is T1, CIB1 and αIIb interaction (GST-CIB1 : F-αIIb peptide) (Homo sapiens, UniProt Q99828).
T1 construct: made in house; host or cells: BL-21 plus RIL cells (E. coli)
T1 sequence (Q99828 1-191): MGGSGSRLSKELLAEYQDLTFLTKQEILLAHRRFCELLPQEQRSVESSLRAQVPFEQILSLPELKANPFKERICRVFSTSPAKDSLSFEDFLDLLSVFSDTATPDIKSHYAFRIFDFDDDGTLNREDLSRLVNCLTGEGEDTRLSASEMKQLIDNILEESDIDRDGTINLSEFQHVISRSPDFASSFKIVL
The data set is described as follows: FP assay, 384-well format (screen). The class given is binding. Also noted: 384-well SCREEN Efficacy (%): concentration or dose not given beside the values. Particulars: F-αIIb peptide; for 384-well SCREEN Confirm?: YES/NO; for pIC50: read-out: 384-well SCREEN IC50.

For data set [2], the target named is T2, GST-CIB1 : F-scrambled peptide (Homo sapiens, UniProt Q99828).
T2 construct: made in house; host or cells: BL-21 plus RIL cells (E. coli)
T2 sequence (Q99828 1-191): T1 sequence (Q99828 1-191)
The data set is described as follows: FP scrambled-peptide counter screen, 384-well format. The class given is binding. Particulars: F-scrambled peptide; for 384-well COUNTERSCREEN Confirm?: *: Curve in opposite direction; for pIC50: read-out: 384-well COUNTERSCREEN IC50. (A counterscreen serves to expose hits that act by an unwanted route or on another target.)

The target in data set [3] is T3, CIB1 and αIIb interaction (CIB1-GST : F-αIIb peptide) (Homo sapiens, UniProt Q99828).
T3 construct: made in house; host or cells: BL-21 plus RIL cells (E. coli)
T3 sequence (Q99828 1-191): T1 sequence (Q99828 1-191)
The data set is described as follows: FP assay, 1536-well qHTS format (primary and confirmatory screen). The following applies: for CONFIRMATORY SCREEN Confirm?: YES/NO call; for CONFIRMATORY SCREEN Curve Class: qHTS curve class; for CONFIRMATORY SCREEN Curve Class / Curve Class: negative sign = inhibitory curve; for CONFIRMATORY SCREEN Efficacy (%) / Efficacy (%): negative = inhibition. It counts as binding. On the technique in general: qHTS replaces the single test concentration by a dilution series.

Data set [4] addresses T2, GST-CIB1 : F-scrambled peptide. The data set is described as follows: FP scrambled-peptide counter screen, 1536-well format. The class given is binding. Particulars: scrambled-peptide counterscreen; for COUNTERSCREEN Confirm?: YES/NO call; for COUNTERSCREEN Curve Class: qHTS curve class; for pIC50: read-out: COUNTERSCREEN IC50.
Data set [5] has as its target T4, GST-CIB1:F-αIIb interaction (Homo sapiens, UniProt Q99828).
T4 construct: made in house; host or cells: BL-21 plus RIL cells (E. coli)
T4 sequence (Q99828 1-191): T1 sequence (Q99828 1-191)
The data set is described as follows: Gel-based (in-gel) binding assay. The following applies: 1 μM GST-CIB1, 400 nM F-αIIb; 60 μM, 1:2, 4-points.

For data set [6], the target named is T5, GST-CIB1 : F-αIIb peptide (Homo sapiens, UniProt Q99828).
T5 construct: made in house; host or cells: BL-21 plus RIL cells (E. coli)
T5 sequence (Q99828 1-191): T1 sequence (Q99828 1-191)
The experiment in a line: FP assay in the presence of glutathione (GSH), thiol reactivity. It counts as binding. Particulars: for GSH/CIB1 IC50 ratio: ratio of GSH (+) IC50 to GSH (-) IC50; for GSH Assay Result: thiol reactivity call: No change / Active.

Another data set concerns washed human platelets. The experiment in a line: Human platelet aggregation assay (thrombin-induced). The class given is cell-based. The following applies: 10 μM compound. The text has this: A classical challenge in target-based drug discovery is moving from biochemical to cellular assay and the essential step of determining if the compounds of interest can perform in a cellular context. After characterization of the compounds in a series of biochemical assay formats, our next step was to assess their activity in a cellular environment. Our previous studies have shown that the interaction of the cytoplasmic domain of integrin αIIbβ3, a key regulator of platelet aggregation, with CIB1, is involved in downstream signaling in platelet activation and aggregation. We sought to determine whether our candidate compounds were inhibiting this interaction by evaluating them for platelet function in a human platelet aggregation assay. We prepared platelet-rich plasma (PRP) and washed the platelets as previously described[44] and then performed a platelet aggregation assay using the washed platelet suspensions (2 × 10^8/platelets/mL) followed by the recording of aggregation traces (see Materials and Methods Section). To induce platelet aggregation, 0.03 U/mL of thrombin, a physiological agonist of platelet activation, was used.
Figure 6 Effect of compounds on human platelet activation. Representative platelet aggregation tracings of washed human platelet suspensions pretreated for 30 min at 37 °C with vehicle (DMSO) or compounds at indicated concentrations followed by activation with thrombin (0.03–0.1 U/mL). Panel (A): NCGC00071855. Panel (B–D): NCGC00351170. Panel (E): CD62P exposure was in the presence of NCGC00351170. Data represents mean ± SEM, n = 4 individual experiments; ns = non significant *P < 0.05, ***P < 0.001, ****P < 0.0001.
Whole blood was drawn by venipuncture from healthy adult volunteers (of both gender and race) with informed consent. Approval was obtained from the institutional review boards of Thomas Jefferson University, according to the Declaration of Helsinki. Blood was collected in acidified citrate dextrose as an anticoagulant. Platelet-rich plasma (PRP) and washed platelets were prepared, as previously described.[44] Platelet aggregation was performed using washed platelet suspensions containing 2 × 10^8 platelets/mL using a Chrono-Log Lumi-Aggregometer (Chrono-Log), as described previously.[11] Aggregation traces were recorded by using Aggrolink software (Chrono-Log). Thrombin-induced P-selectin (CD62P) exposure was performed using Accuri C6 flowcytometer (BD Bioscience) as described previously.[11]
Figure S9: Effect of compounds on human platelet activation. Representative platelet aggregation
tracings of washed human platelet suspensions treated with vehicle (DMSO) or indicated
compounds at 10 μM for 30 minutes at 37 °C followed by activation with thrombin (0.03U/mL).

Data set [7] can be described thus: In vitro ADME: solubility. It counts as physicochemical. Particulars: read-out: Solubility.
The nature of data set [8]: In vitro ADME: PAMPA permeability. On the technique in general: In PAMPA a lipid-coated filter parts donor from acceptor wells.
In the next data set the target is T6, CIB1 and αIIb peptide (Homo sapiens, UniProt Q99828).
T6 sequence (Q99828 1-191): T1 sequence (Q99828 1-191)
The data set is described as follows: Intrinsic tryptophan fluorescence (ITF) assay.

Where [9] appears, read: confirmatory screen, read-out: CONFIRMATORY SCREEN IC50.
The mark [10] stands for this setting: FP assay in the presence of glutathione (GSH +), read-out: GSH (+) Assay IC50.
[11] abbreviates: FP assay without glutathione (GSH -), read-out: GSH (-) Assay IC50.
Where [12] appears, read: qHTS primary screen hits, Table S2.

For orientation: pIC50 means −log10 of the IC50, conventionally taken in molar units. As usually defined, the solubility is the dissolved amount per volume that the medium holds. One may read the Papp as a coefficient for how fast a substance crosses the barrier. For the compound `O=C(c1cccs1)c1no[n+]([O-])c1C(=O)c1cccs1` [NCGC00071855-04], in data set [1], the “384-well SCREEN Efficacy (%)” value came out at 76%, the “384-well SCREEN Confirm?” value is on record as “YES” and the pIC50 is 5.10. Also, in [2], the “384-well COUNTERSCREEN Efficacy (%)” value came out at 50%, the “384-well COUNTERSCREEN Confirm?” value was “YES” and the pIC50 is 4.50. In addition, in data set [3] (confirmatory screen), the “CONFIRMATORY SCREEN Confirm?” value is reported as “YES”, the “CONFIRMATORY SCREEN Curve Class” value is -1.4 and the “CONFIRMATORY SCREEN Efficacy (%)” value is on record as -40%. In addition, the pIC50 in data set [3] (setting [9]) is 5.25. Moreover, in [4], the “COUNTERSCREEN Efficacy (%)” value is -36%, the “COUNTERSCREEN Confirm?” value is listed as “YES”, the “COUNTERSCREEN Curve Class” value is recorded as -1.4 and the pIC50 is 4.60. For the same compound, the “Active in Gel Assay?” value in [5] is “YES”. Besides, the pIC50 in [6] (setting [10]) is 5.51. For the same compound, the pIC50 in data set [6] (setting [11]) was 5.20. In addition, in [6], the “GSH/CIB1 IC50 ratio” value was 0.5 and the “GSH Assay Result” value was “No change”. For the same compound, the “Platelet Aggregation Result” value in the data set with washed human platelets is “Active”. Besides, in data set [7], the solubility was 9 µg/mL (≈ 29.4 µM). This compound also yielded a Papp in data set [8] of 156 ×10⁻⁶ cm/s. The compound further had a pIC50 on CIB1 and αIIb peptide of 4.27.

For the compound `COc1ccc(CNC(=O)c2nc(S(=O)(=O)Cc3ccccc3)ncc2Cl)cc1.O=C(O)C(F)(F)F` [NCGC00117170-03], in [1], the “384-well SCREEN Efficacy (%)” value worked out at 56%, the “384-well SCREEN Confirm?” value was “YES” and the pIC50 was 5.15. In addition, in data set [2], the “384-well COUNTERSCREEN Efficacy (%)” value turned out to be 17%, the “384-well COUNTERSCREEN Confirm?” value was “YES” and the pIC50 is below 3.92. For the same compound, in [3] (confirmatory screen), the “CONFIRMATORY SCREEN Confirm?” value is recorded as “YES”, the “CONFIRMATORY SCREEN Curve Class” value is -1.4 and the “CONFIRMATORY SCREEN Efficacy (%)” value is given as -29%. Moreover, the negative-log IC50 (pIC50) in data set [3] (setting [9]) is 4.90. Moreover, the “Efficacy (%)” value in data set [3] (qHTS FP screen hits, Table S2) is recorded as -38%. Besides, the “Curve Class” value in [3] (qHTS FP screen hits, Table S2, one class per curve where COUNT > 1) is listed as -1.2. The pIC50 in data set [3] (qHTS FP screen hits, Table S2, read-out: IC50) was 5.70. Also, in data set [4], the “COUNTERSCREEN Efficacy (%)” value is recorded as -18%, the “COUNTERSCREEN Confirm?” value is given as “YES” and the “COUNTERSCREEN Curve Class” value came out at 4. In [5], the “Active in Gel Assay?” value is listed as “YES”. Further, the pIC50 in [6] (setting [10]) was 5.39. Further, the pIC50 in data set [6] (setting [11]) was 5.49. Besides, in [6], the “GSH/CIB1 IC50 ratio” value was determined as 1.3 and the “GSH Assay Result” value was “No change”. Besides, the “ITF IC50” value at CIB1 and αIIb peptide is “inactive”.

Take `Oc1ccc2ccccc2c1SSc1c(O)ccc2ccccc12` [NCGC00186047-02, IPA-3, reference compound]: in data set [1], the “384-well SCREEN Efficacy (%)” value turned out to be 76%, the “384-well SCREEN Confirm?” value is listed as “YES” and the pIC50 is 5.89. For the same compound, in data set [2], the “384-well COUNTERSCREEN Efficacy (%)” value amounted to 23%, the “384-well COUNTERSCREEN Confirm?” value was “YES” and the negative logarithm of the IC50 (pIC50) was below 3.92. Moreover, in [3] (confirmatory screen), the “CONFIRMATORY SCREEN Confirm?” value is recorded as “YES”, the “CONFIRMATORY SCREEN Curve Class” value is recorded as -1.4 and the “CONFIRMATORY SCREEN Efficacy (%)” value is given as -74%. For the same compound, in data set [3] (setting [9]), the negative-log IC50 (pIC50) is 5.55. Further, in [3] (setting [12]), the “Efficacy (%)” value is listed as -21% and the “Curve Class” value is recorded as -1.4. In data set [3] (qHTS primary screen hits, Table S2, read-out: IC50), the pIC50 was 4.99. For the same compound, in data set [4], the “COUNTERSCREEN Efficacy (%)” value is listed as -34%, the “COUNTERSCREEN Confirm?” value is on record as “YES”, the “COUNTERSCREEN Curve Class” value is listed as -1.2 and the pIC50 was 4.50. Also, in data set [5], the “Active in Gel Assay?” value is “YES”. For the same compound, the pIC50 in [6] (setting [10]) is 6.49. In [6] (setting [11]), the pIC50 is 6.63. In addition, in [6], the “GSH/CIB1 IC50 ratio” value is given as 1.4 and the “GSH Assay Result” value was “No change”. The “shift in potency in the presence of GSH” value in data set [6] (with vs without 10 μM reduced GSH) is “no shift”. Besides, at CIB1 and αIIb peptide, the pIC50 is 4.78.
